Test system: Human patients with short bowel syndrome
Assay: Example 2: liver biomarkers (albumin, gamma glutamyl transferase, total bilirubin, ALT, AST, ALP) in short bowel syndrome patients, every four weeks for 24 weeks
Format: in vivo
Conditions: 0.05 mg/kg/d
Experimental: To further confirm the results of Example 1, a further study was conducted involving more individuals and additional diagnostic biomarkers. Human patients with short bowel syndrome were divided into two groups: a control group (43 total individuals) to receive placebo, and an experimental group (42 total individuals) to receive teduglutide at 0.05 mg/kg/day throughout the study. Patients were treated by subcutaneous injection of placebo or the appropriate dose of teduglutide. Known biomarkers of liver function were monitored every four weeks, for 24 weeks. The liver biomarkers tested included albumin, gamma glutamyl transferase, total bilirubin, ALT and AST and ALP. Before administration of placebo or teduglutide, diagnostic biomarker levels were tested to establish a baseline for each individual.
To determine the effect of GLP-2 on the levels of the diagnostic biomarkers, the average level of each biomarker was measured for the placebo and teduglutide treated groups for each visit. Furthermore, the average change from baseline was calculated using the established baseline values. For FIGS. 17-28, p-values were calculated using the t-test.
P values are provided, which were calculated for each distribution of biomarker changes for each week using the chi-squared test.

Compound: CC[C@H](C)[C@H](NC(=O)[C@H](Cc1ccccc1)NC(=O)[C@H](CC(=O)O)NC(=O)[C@H](CCCNC(=N)N)NC(=O)[C@H](C)NC(=O)[C@H](C)NC(=O)[C@H](CC(C)C)NC(=O)[C@H](CC(N)=O)NC(=O)[C@H](CC(=O)O)NC(=O)[C@H](CC(C)C)NC(=O)[C@@H](NC(=O)[C@@H](NC(=O)[C@H](CC(N)=O)NC(=O)[C@H](CCSC)NC(=O)[C@H](CCC(=O)O)NC(=O)[C@H](CC(=O)O)NC(=O)[C@H](CO)NC(=O)[C@H](Cc1ccccc1)NC(=O)[C@H](CO)NC(=O)CNC(=O)[C@H](CC(=O)O)NC(=O)CNC(=O)[C@@H](N)Cc1c[nH]cn1)[C@@H](C)O)[C@@H](C)CC)C(=O)N[C@@H](CC(N)=O)C(=O)N[C@@H](Cc1c[nH]c2ccccc12)C(=O)N[C@@H](CC(C)C)C(=O)N[C@H](C(=O)N[C@@H](CCC(N)=O)C(=O)N[C@H](C(=O)N[C@@H](CCCCN)C(=O)N[C@H](C(=O)N[C@H](C(=O)N[C@@H](CC(=O)O)C(=O)O)[C@@H](C)O)[C@@H](C)CC)[C@@H](C)O)[C@@H](C)CC [teduglutide]
- Gamma Glutamyl Transferase Change from Baseline, Median (Week 8, n=40): −5.5 U/L
- Gamma Glutamyl Transferase Observed Value, Mean (Week 8, n=40): 71.5 U/L
- Gamma Glutamyl Transferase Observed Value, Median (Week 8, n=40): 46 U/L
- ALT >10% decrease from Baseline, % of subjects (Week 12, m=34): (50.0%)
- ALT >10% decrease from Baseline, n subjects (Week 12, m=34): 17
- ALT >10% increase from Baseline, % of subjects (Week 12, m=34): (20.6%)
- ALT >10% increase from Baseline, n subjects (Week 12, m=34): 7
- ALT Within 10% of Baseline, % of subjects (Week 12, m=34): (29.4%)
- ALT Within 10% of Baseline, n subjects (Week 12, m=34): 10
- AST >10% decrease from Baseline, % of subjects (Week 12, m=34): (61.8%)
- AST >10% decrease from Baseline, n subjects (Week 12, m=34): 21
- AST >10% increase from Baseline, % of subjects (Week 12, m=34): (20.6%)
- AST >10% increase from Baseline, n subjects (Week 12, m=34): 7
- AST Within 10% of Baseline, % of subjects (Week 12, m=34): (17.6%)
- AST Within 10% of Baseline, n subjects (Week 12, m=34): 6
- Albumin >10% decrease from Baseline, % of subjects (Week 12, m=34): (5.9%)
- Albumin >10% decrease from Baseline, n subjects (Week 12, m=34): 2
- Albumin >10% increase from Baseline, % of subjects (Week 12, m=34): (2.9%)
- Albumin >10% increase from Baseline, n subjects (Week 12, m=34): 1
- Albumin Within 10% of Baseline, % of subjects (Week 12, m=34): (91.2%)
- Albumin Within 10% of Baseline, n subjects (Week 12, m=34): 31
- Alkaline Phosphatase >10% decrease from Baseline, % of subjects (Week 12, m=34): (67.6%)
- Alkaline Phosphatase >10% decrease from Baseline, n subjects (Week 12, m=34): 23
- Alkaline Phosphatase >10% increase from Baseline, % of subjects (Week 12, m=34): (14.7%)
- Alkaline Phosphatase >10% increase from Baseline, n subjects (Week 12, m=34): 5
- Alkaline Phosphatase Within 10% of Baseline, % of subjects (Week 12, m=34): (17.6%)
- Alkaline Phosphatase Within 10% of Baseline, n subjects (Week 12, m=34): 6
- Bilirubin >10% decrease from Baseline, % of subjects (Week 12, m=34): (44.1%)
- Bilirubin >10% decrease from Baseline, n subjects (Week 12, m=34): 15
- Bilirubin >10% increase from Baseline, % of subjects (Week 12, m=34): (26.5%)
- Bilirubin >10% increase from Baseline, n subjects (Week 12, m=34): 9
- Bilirubin Within 10% of Baseline, % of subjects (Week 12, m=34): (29.4%)
- Bilirubin Within 10% of Baseline, n subjects (Week 12, m=34): 10
- ALKALINE PHOSPHATASE Change from Baseline, Median (Week 12, n=34): −23 U/L
- ALT Change from Baseline, Mean (Week 12, n=34): −9.8 U/L
- ALT Change from Baseline, Median (Week 12, n=34): −4 U/L
- ALT Observed Value, Mean (Week 12, n=34): 33.6 U/L
- ALT Observed Value, Median (Week 12, n=34): 27.5 U/L
- AST Change from Baseline, Mean (Week 12, n=34): −4.2 U/L
- AST Change from Baseline, Median (Week 12, n=34): −5 U/L
- AST Observed Value, Mean (Week 12, n=34): 28.4 U/L
- AST Observed Value, Median (Week 12, n=34): 25 U/L
- Albumin Change from Baseline, Mean (Week 12, n=34): -0.9 g/L
- Albumin Change from Baseline, Median (Week 12, n=34): -1 g/L
- Albumin Observed Value, Mean (Week 12, n=34): 41.2 g/L
- Albumin Observed Value, Median (Week 12, n=34): 41 g/L
- Alkaline Phosphatase Change from Baseline, Mean (Week 12, n=34): −27.2 U/L
- Alkaline Phosphatase Observed Value, Mean (Week 12, n=34): 108.6 U/L
- Alkaline Phosphatase Observed Value, Median (Week 12, n=34): 98 U/L
- Bilirubin Change from Baseline, Mean (Week 12, n=34): -1.54 µmol/L
- Bilirubin Change from Baseline, Median (Week 12, n=34): -0.05 µmol/L
- Bilirubin Observed Value, Mean (Week 12, n=34): 10.57 µmol/L
- Bilirubin Observed Value, Median (Week 12, n=34): 8.35 µmol/L
- Gamma Glutamyl Transferase Change from Baseline, Mean (Week 12, n=34): −8.1 U/L
- Gamma Glutamyl Transferase Change from Baseline, Median (Week 12, n=34): −4 U/L
- Gamma Glutamyl Transferase Observed Value, Mean (Week 12, n=34): 67.9 U/L
- Gamma Glutamyl Transferase Observed Value, Median (Week 12, n=34): 51 U/L
- ALT >10% decrease from Baseline, % of subjects (Week 16, m=38): (52.6%)
- ALT >10% decrease from Baseline, n subjects (Week 16, m=38): 20
- ALT >10% increase from Baseline, % of subjects (Week 16, m=38): (21.1%)
- ALT >10% increase from Baseline, n subjects (Week 16, m=38): 8
- ALT Within 10% of Baseline, % of subjects (Week 16, m=38): (26.3%)
- ALT Within 10% of Baseline, n subjects (Week 16, m=38): 10
- AST >10% decrease from Baseline, % of subjects (Week 16, m=38): (50.0%)
- AST >10% decrease from Baseline, n subjects (Week 16, m=38): 19
- AST >10% increase from Baseline, % of subjects (Week 16, m=38): (18.4%)
- AST >10% increase from Baseline, n subjects (Week 16, m=38): 7
- AST Within 10% of Baseline, % of subjects (Week 16, m=38): (31.6%)
- AST Within 10% of Baseline, n subjects (Week 16, m=38): 12
- Albumin >10% decrease from Baseline, % of subjects (Week 16, m=38): (5.3%)
- Albumin >10% decrease from Baseline, n subjects (Week 16, m=38): 2
- Albumin >10% increase from Baseline, n subjects (Week 16, m=38): 0
- Albumin Within 10% of Baseline, % of subjects (Week 16, m=38): (94.7%)
- Albumin Within 10% of Baseline, n subjects (Week 16, m=38): 36
- Alkaline Phosphatase >10% decrease from Baseline, % of subjects (Week 16, m=38): (60.5%)
- Alkaline Phosphatase >10% decrease from Baseline, n subjects (Week 16, m=38): 23
- Alkaline Phosphatase >10% increase from Baseline, % of subjects (Week 16, m=38): (21.1%)
- Alkaline Phosphatase >10% increase from Baseline, n subjects (Week 16, m=38): 8
- Alkaline Phosphatase Within 10% of Baseline, % of subjects (Week 16, m=38): (18.4%)
- Alkaline Phosphatase Within 10% of Baseline, n subjects (Week 16, m=38): 7
- Bilirubin >10% decrease from Baseline, % of subjects (Week 16, m=38): (63.2%)
- Bilirubin >10% decrease from Baseline, n subjects (Week 16, m=38): 24
- Bilirubin >10% increase from Baseline, % of subjects (Week 16, m=38): (23.7%)
- Bilirubin >10% increase from Baseline, n subjects (Week 16, m=38): 9
- Bilirubin Within 10% of Baseline, % of subjects (Week 16, m=38): (13.2%)
- Bilirubin Within 10% of Baseline, n subjects (Week 16, m=38): 5
- ALKALINE PHOSPHATASE Change from Baseline, Median (Week 16, n=38): −22.5 U/L
- ALT Change from Baseline, Mean (Week 16, n=38): −8.0 U/L
- ALT Change from Baseline, Median (Week 16, n=38): −3 U/L
- ALT Observed Value, Mean (Week 16, n=38): 37.5 U/L
- ALT Observed Value, Median (Week 16, n=38): 26.5 U/L
- AST Change from Baseline, Mean (Week 16, n=38): −3.3 U/L
- AST Change from Baseline, Median (Week 16, n=38): −3 U/L
- AST Observed Value, Mean (Week 16, n=38): 29.8 U/L
- AST Observed Value, Median (Week 16, n=38): 26 U/L
- Albumin Change from Baseline, Mean (Week 16, n=38): -0.7 g/L
- Albumin Change from Baseline, Median (Week 16, n=38): -0.5 g/L
- Albumin Observed Value, Mean (Week 16, n=38): 41.7 g/L
- Albumin Observed Value, Median (Week 16, n=38): 42 g/L
- Alkaline Phosphatase Change from Baseline, Mean (Week 16, n=38): −24.5 U/L
- Alkaline Phosphatase Observed Value, Mean (Week 16, n=38): 114.2 U/L
- Alkaline Phosphatase Observed Value, Median (Week 16, n=38): 102 U/L
- Bilirubin Change from Baseline, Mean (Week 16, n=38): -3.41 µmol/L
- Bilirubin Change from Baseline, Median (Week 16, n=38): -1.75 µmol/L
- Bilirubin Observed Value, Mean (Week 16, n=38): 9.40 µmol/L
- Bilirubin Observed Value, Median (Week 16, n=38): 8.1 µmol/L
- Gamma Glutamyl Transferase Change from Baseline, Mean (Week 16, n=38): −7.0 U/L
- Gamma Glutamyl Transferase Change from Baseline, Median (Week 16, n=38): −5.5 U/L

From US20130072430A1, “METHODS FOR TREATMENT OR PROPHYLAXIS OF KIDNEY OR LIVER DYSFUNCTION” (NPS PHARMACEUTICALS, INC., priority 2010, published 2013)
